Assay results from US20150344457A1, “METHODS OF INHIBITING PRMT5” (EPIZYME, INC., priority 2012, published 2015).

target: T1, PRMT5/MEP50 (Homo sapiens, UniProt O14744); assay: PRMT5 Biochemical Assay (PRMT5/MEP50 enzyme assay on peptide substrate, 3H-SAM Flashplate); conditions: Table D-2; read-out: Biochemical IC50
T1 construct: Expressed full-length human Flag-PRMT5/6His-MeP50 protein complex was purified; made in house; host or cells: Spodoptera frugiperda (SF9) insect cells, baculovirus (pDEST8)
T1 sequence (O14744 with tags, fused parts or gaps): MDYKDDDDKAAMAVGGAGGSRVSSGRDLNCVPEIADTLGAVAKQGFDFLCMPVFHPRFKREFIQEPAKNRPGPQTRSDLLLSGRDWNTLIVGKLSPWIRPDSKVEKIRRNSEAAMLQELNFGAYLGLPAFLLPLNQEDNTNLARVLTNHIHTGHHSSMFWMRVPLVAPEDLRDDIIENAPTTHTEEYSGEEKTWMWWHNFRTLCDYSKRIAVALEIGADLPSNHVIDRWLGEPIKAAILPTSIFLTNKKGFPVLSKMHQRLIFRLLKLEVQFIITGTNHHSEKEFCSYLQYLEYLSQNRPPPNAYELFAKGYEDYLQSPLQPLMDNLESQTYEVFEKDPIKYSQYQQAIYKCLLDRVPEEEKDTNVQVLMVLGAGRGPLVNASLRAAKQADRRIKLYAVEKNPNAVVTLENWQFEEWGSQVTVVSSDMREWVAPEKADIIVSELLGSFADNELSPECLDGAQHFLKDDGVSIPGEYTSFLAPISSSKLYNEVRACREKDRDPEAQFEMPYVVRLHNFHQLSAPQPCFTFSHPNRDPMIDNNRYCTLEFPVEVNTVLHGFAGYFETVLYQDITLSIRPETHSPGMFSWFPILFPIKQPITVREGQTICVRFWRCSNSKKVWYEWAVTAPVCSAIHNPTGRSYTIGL
T1 sequence (Q9BQA1 with tags, fused parts or gaps partner limits assumed): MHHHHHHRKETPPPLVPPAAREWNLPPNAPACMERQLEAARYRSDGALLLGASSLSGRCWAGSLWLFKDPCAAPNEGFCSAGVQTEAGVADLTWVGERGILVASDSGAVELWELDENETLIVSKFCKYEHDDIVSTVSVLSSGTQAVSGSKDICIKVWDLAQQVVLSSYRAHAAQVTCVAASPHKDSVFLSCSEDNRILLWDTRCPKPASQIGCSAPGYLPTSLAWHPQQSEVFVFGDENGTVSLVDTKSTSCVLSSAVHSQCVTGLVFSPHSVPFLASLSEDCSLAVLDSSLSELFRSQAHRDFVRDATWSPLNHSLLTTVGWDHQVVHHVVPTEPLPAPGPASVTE

IC50 [µM]	SMILES
0.101 to 1	OC(COc1cccc(CNC2CCCC2)c1)CN1CCc2ccccc2C1 (stereo not drawn) [Compound D1]
1 to 10	OC(COc1ccc(-n2cncn2)cc1)CN1CCc2ccccc2C1 (stereo not drawn) [Compound D9]
1 to 10	OC(COCc1ccc(OCc2ccccc2)cc1)CN1CCc2ccccc2C1 (stereo not drawn) [Compound D12]
1 to 10	O=S1(=O)CCN(c2ccc(OCC(O)CN3CCc4ccccc4C3)cc2)CC1 (stereo not drawn) [Compound D18]
1 to 10	OC(COC1CCN(Cc2ccccc2)CC1)CN1CCc2ccccc2C1 (stereo not drawn) [Compound D21]
1 to 10	CN(Cc1ccc(OCC(O)CN2CCc3ccccc3C2)cc1)C1CCCC1 (stereo not drawn) [Compound D24]
1 to 10	OC(COc1ccc(C2CCNCC2)cc1)CN1CCc2ccccc2C1 (stereo not drawn) [Compound D25]
10 to 40	CC(C)n1nccc1-c1ccc(OCC(O)CN2CCc3ccccc3C2)cc1 (stereo not drawn) [Compound D26]
1 to 10	CC(C)n1ccc(-c2ccc(OCC(O)CN3CCc4ccccc4C3)cc2)n1 (stereo not drawn) [Compound D27]
1 to 10	Cc1cccc2c1CN(CC(O)COc1cccc(-c3ccc4ncn(C)c4c3)c1)CC2 (stereo not drawn) [Compound D192]
> 40	CCOC(=O)C1c2ccccc2CCN1CC(O)COc1cccc(-c2ccc3ncn(C)c3c2)c1 (stereo not drawn) [Compound D193]
1 to 10	OC(COc1cccc(N2CCc3[nH]nc(-c4ccccc4)c3C2)c1)CN1CCc2ccccc2C1 (stereo not drawn) [Compound D194]
1 to 10	Cn1cncc1C(=O)Nc1cccc(OCC(O)CN2CCc3ccccc3C2)c1 (stereo not drawn) [Compound D195]
1 to 10	CN(C(=O)c1cnco1)c1cccc(OCC(O)CN2CCc3ccccc3C2)c1 (stereo not drawn) [Compound D196]
1 to 10	CN(C(=O)c1cn(C)cn1)c1cccc(OCC(O)CN2CCc3ccccc3C2)c1 (stereo not drawn) [Compound D197]
10 to 40	CN(C(=O)c1cocn1)c1cccc(OCC(O)CN2CCc3ccccc3C2)c1 (stereo not drawn) [Compound D198]
> 40	Cn1cnc2ccc(-c3cccc(OCC(O)CN4CCc5ccccc5C4CC(N)=O)c3)cc21 (stereo not drawn) [Compound D202]
1 to 10	CN(C(=O)c1cncn1C)c1cccc(OCC(O)CN2CCc3ccccc3C2)c1 (stereo not drawn) [Compound D203]
1 to 10	CN(C(=O)c1cccnc1)c1cccc(OCC(O)CN2CCc3ccccc3C2)c1 (stereo not drawn) [Compound D204]
1 to 10	CNC(=O)Cn1ccc2cnc(-c3cccc(OCC(O)CN4CCc5ccccc5C4)c3)nc21 (stereo not drawn) [Compound D206]
1 to 10	Cn1cnc2ccc(-c3cccc(OCC(O)CN4CCc5ccccc5C4(C)C)c3)cc21 (stereo not drawn) [Compound D211]
1 to 10	Cc1ccc2c(c1)CN(CC(O)COc1cccc(-c3ccc4ncn(C)c4c3)c1)CC2 (stereo not drawn) [Compound D212]

IC50 [µM]	SMILES
1 to 10	Cc1cccc2c1CCN(CC(O)COc1cccc(-c3ccc4ncn(C)c4c3)c1)C2 (stereo not drawn) [Compound D213]
1 to 10	Cn1cnc2ccc(-c3cccc(OCC(O)CN4CCc5ccc(Cl)cc5C4)c3)cc21 (stereo not drawn) [Compound D214]
1 to 10	Cn1cnc2ccc(-c3cccc(OCC(O)CN4CCc5c(Cl)cccc5C4)c3)cc21 (stereo not drawn) [Compound D215]
> 40	Cn1cnc2ccc(-c3cccc(OCC(O)CN4CCc5ccccc5C4=O)c3)cc21 (stereo not drawn) [Compound D225]
< 0.1	Cn1ccc2ccc(-c3ccnc(NCC(O)CN4CCc5ccccc5C4)c3)cc21 (stereo not drawn) [Compound D227]
0.101 to 1	CC(=O)N1CCC(n2cnc3ccc(-c4cccc(OCC(O)CN5CCc6ccccc6C5)c4)cc32)CC1 (stereo not drawn) [Compound D228]
< 0.1	OC(CNc1cc(-c2ccc3ncn(C4CNC4)c3c2)ccn1)CN1CCc2ccccc2C1 (stereo not drawn) [Compound D229]
< 0.1	CN1CC(n2cnc3ccc(-c4ccnc(NCC(O)CN5CCc6ccccc6C5)c4)cc32)C1 (stereo not drawn) [Compound D230]
0.101 to 1	O=C(Cn1ccc2cnc(-c3cccc(OCC(O)CN4CCc5ccccc5C4)c3)nc21)N1CCCC1 (stereo not drawn) [Compound D231]
0.101 to 1	O=C(Cn1ccc2cnc(-c3cccc(OCC(O)CN4CCc5ccccc5C4)c3)nc21)N1CCCCC1 (stereo not drawn) [Compound D232]
0.101 to 1	O=C(Nc1ccccn1)c1cccc(OCC(O)CN2CCc3ccccc3C2)c1 (stereo not drawn) [Compound D267]
1 to 10	O=C(Nc1cccnc1)c1cccc(OCC(O)CN2CCc3ccccc3C2)c1 (stereo not drawn) [Compound D268]
1 to 10	O=C(Nc1cc[nH]n1)c1cccc(OCC(O)CN2CCc3ccccc3C2)c1 (stereo not drawn) [Compound D274]
> 10	Cn1cnc2ccc(-c3cccc(OCC(O)CN4Cc5ccccc5C(F)(F)C4)c3)cc21 (stereo not drawn) [Compound D277]
1 to 10	OC(COCc1ccc(Cl)cc1)CN1CCc2ccccc2C1 (stereo not drawn) [Compound D278]
1 to 10	COc1c(COCC(O)CN2CCc3ccccc3C2)ccc2ccccc12 (stereo not drawn) [Compound D279]
1 to 10	OC(COCc1ccc(Cl)cc1Cl)CN1CCc2ccccc2C1 (stereo not drawn) [Compound D281]
10 to 40	OC(COCc1ccccn1)CN1CCc2ccccc2C1 (stereo not drawn) [Compound D282]
10 to 40	OC(COCc1cccnc1)CN1CCc2ccccc2C1 (stereo not drawn) [Compound D283]
10 to 40	OC(COCc1ccncc1)CN1CCc2ccccc2C1 (stereo not drawn) [Compound D284]
1 to 10	CC(C)(C)OC(=O)N1CCC(OCC(O)CN2CCc3ccccc3C2)C1 (stereo not drawn) [Compound D287]
1 to 10	OC(COC1CCCC1)CN1CCc2ccccc2C1 (stereo not drawn) [Compound D302]

same assay, conditions: Table E-2; read-out: Biochemical IC50

IC50 [µM]	SMILES
1 to 10	Nc1cccc(C(=O)NCC(O)CN2Cc3ccccc3C2)c1 (stereo not drawn) [Compound E2.]
< 0.1	O=C(COc1cccc2cccnc12)NC[C@H](O)CN1Cc2ccccc2C1 [Compound E4.]
< 0.1	C[C@@H](Oc1cccc2cccnc12)C(=O)NC[C@H](O)CN1Cc2ccccc2C1 [Compound E5.]
> 10	C[C@H](Oc1cccc2cccnc12)C(=O)NC[C@@H](O)CN1Cc2ccccc2C1 [Compound E6.]
0.101 to 1	O=C(COc1ccccc1-c1cc[nH]n1)NCC(O)CN1Cc2ccccc2C1 (stereo not drawn) [Compound E7.]
1 to 10	Cn1cnc2ccc(-c3cccc(OCC(O)CN4Cc5ccccc5C4)c3)cc21 (stereo not drawn) [Compound E9.]
0.101 to 1	CC(C)(C)OC(=O)Nc1cccc(C(=O)NCC(O)CN2Cc3ccccc3C2)c1 (stereo not drawn) [Compound E11.]
0.101 to 1	CS(=O)(=O)c1ccccc1OCC(=O)NCC(O)CN1Cc2ccccc2C1 (stereo not drawn) [Compound E12.]
0.101 to 1	O=C(NCC(O)CN1Cc2ccccc2C1)c1cccc(-c2ccccn2)c1 (stereo not drawn) [Compound E13.]
< 0.1	CN(C)S(=O)(=O)c1ccccc1OCC(=O)NCC(O)CN1Cc2ccccc2C1 (stereo not drawn) [Compound E15.]
1 to 10	O=C(COc1cccc2cccnc12)NC[C@@H](O)CN1Cc2ccccc2C1 [Compound E16.]
1 to 10	COc1ccc(Cn2cnc3ccc(-c4ccc(OCC(O)CN5Cc6ccccc6C5)cc4)cc32)cc1 (stereo not drawn) [Compound E18.]
0.101 to 1	O=C(COc1cccc2cccnc12)NCC(O)CN1Cc2ccccc2C1 (stereo not drawn) [Compound E19.]
1 to 10	OC(COc1cccc(CNC2CCCC2)c1)CN1Cc2ccccc2C1 (stereo not drawn) [Compound E20.]

system: Z-138 cells; assay: Z-138 Proliferation Assay (Cell Titer Glo, 5 days); type: cell-based; conditions: Homo sapiens, Table D-2
Source text: Z-138 Proliferation Assay
Z-138 suspension cells were purchased from ATCC (American Type Culture Collection, Manassas, Va.). RPMI/Glutamax medium, penicillin-streptomycin, heat inactivated fetal bovine serum were purchased from Life Technologies, Grand Island, N.Y., USA. V-bottom polypropylene 384-well plates were purchased from Greiner Bio-One, Monroe, N.C., USA. Cell culture 384-well white opaque plates were purchased from Perkin Elmer, Waltham, Mass., USA. Cell-Titer Gb® was purchased from Promega Corporation, Madison, Wis., USA. SpectraMax M5 plate reader was purchased from Molecular Devices LLC, Sunnyvale, Calif., USA.
Z-138 suspension cells were maintained in growth medium (RPMI 1640 supplemented with 10% v/v heat inactivated fetal bovine serum and cultured at 37° C. under 5% CO2. Under assay conditions, cells were incubated in assay medium (RPMI 1640 supplemented with 10% v/v heat inactivated fetal bovine serum and 100 units/mL penicillin-streptomycin) at 37° C. under 5% CO2.
For the assessment of the effect of compounds on the proliferation of the Z-138 cell line, exponentially growing cells were plated in 384-well white opaque plates at a density of 10,000 cells/ml in a final volume of 50 μl of assay medium. A compound source plate was prepared by performing triplicate nine-point 3-fold serial dilutions in DMSO, beginning at 10 mM (final top concentration of compound in the assay was 20 μM and the DMSO was 0.2%). A 100 nL aliquot from the compound stock plate was added to its respective well in the cell plate. […] After addition of compounds, assay plates were incubated for 5 days at 37° C., 5% CO2, relative humidity >90%.
Cell viability was measured by quantitation of ATP present in the cell cultures, adding 35 μl of Cell Titer Glo® reagent to the cell plates. Luminescence was read in the SpectraMax M5 microplate reader. The concentration of compound inhibiting cell viability by 50% was determined using a 4-parametric fit of the normalized dose response curves.

SMILES	EC50 [µM]
OC(COc1cccc(CNC2CCCC2)c1)CN1CCc2ccccc2C1 (stereo not drawn) [Compound D1]	10 to 40
OC(COc1ccc(-n2cncn2)cc1)CN1CCc2ccccc2C1 (stereo not drawn) [Compound D9]	> 20
OC(COCc1ccc(OCc2ccccc2)cc1)CN1CCc2ccccc2C1 (stereo not drawn) [Compound D12]	> 20
O=S1(=O)CCN(c2ccc(OCC(O)CN3CCc4ccccc4C3)cc2)CC1 (stereo not drawn) [Compound D18]	> 20
OC(COC1CCN(Cc2ccccc2)CC1)CN1CCc2ccccc2C1 (stereo not drawn) [Compound D21]	> 40
O[C@H](COc1cccc(CNC2CCCC2)c1)CN1CCc2ccccc2C1 [Compound D22]	10 to 40
O[C@@H](COc1cccc(CNC2CCCC2)c1)CN1CCc2ccccc2C1 [Compound D23]	10 to 40
CN(Cc1ccc(OCC(O)CN2CCc3ccccc3C2)cc1)C1CCCC1 (stereo not drawn) [Compound D24]	> 40
OC(COc1ccc(C2CCNCC2)cc1)CN1CCc2ccccc2C1 (stereo not drawn) [Compound D25]	10 to 40
CC(C)n1nccc1-c1ccc(OCC(O)CN2CCc3ccccc3C2)cc1 (stereo not drawn) [Compound D26]	> 40
CC(C)n1ccc(-c2ccc(OCC(O)CN3CCc4ccccc4C3)cc2)n1 (stereo not drawn) [Compound D27]	> 40
